{"source": "paper PMC5045922", "about": "“In vivo pharmacological activity and biodistribution of S-nitrosophytochelatins after intravenous and intranasal administration in mice” (Nitric Oxide, 2016)", "key": {"CD-1 mice": {"system": "CD-1 mice", "type": "in vivo", "details": "for Tmax (time at which the maximum response occurred): in vivo, iv", "description": "In vivo blood pressure was monitored in anaesthetized animals as previously described. A total of 12 wild type male mice were used (n = 3/group) where the groups represented the vehicle (0.9% saline) control, GSNO, SNOPC-2 and SNOPC-6 treatments, respectively. Mean arterial pressure was recorded in anaesthetized mice (2% isoflurane in air) on a homeothermically controlled heating blanket (Harvard Instruments, Edenbridge, UK). A 1.2F microtip pressure catheter (Scisense, Transonic Systems, Ithaca, NY, USA) was inserted into the right carotid artery and basal arterial pressure was recorded for 5 min. Test drug solutions (50 μL containing 500 μmol/L NO ≈ 1 μmol NO/kg body weight) or control (saline) solution were directly injected into the jugular vein using a 30 gauge needle inserted through the underlying muscle. Arterial blood pressure was recorded continuously for a further 5 min following drug administration using a PowerLab data acquisition system and Chart 7 software (ADInstuments, Oxford, UK)."}, "[1]": {"set-up": "species or system mice", "details": "CD-1, mouse, in vivo", "description": "A total of 48 mice were used (n = 3/group/time point) where the groups represented vehicle (0.9%saline) control, GSNO, SNOPC-2 and SNOPC-6 treatments (n = 3 per group), respectively. A time course study (0, 1, 5 and 15 min) was carried out to characterize the NOx biodistribution after i.n. administration of compounds. Prior to drug administration, mice were anaesthetized by inhaling 2% isoflurane in air via a nose cone. A single volume (20 μL) of test solution in saline (containing 1.25 mmol/L NO ≈ 1 μmol NO/kg body weight) or control (saline) solution was then administered drop wise into the nasal cavity using a micropipette after removing the mouse momentarily from the anaesthetic mask cone and holding it in an upright position. At the appropriate time point animals were exsanguinated by terminal bleed under anaesthesia. Blood and organ samples were collected and processed as described in section 2.4.\nPrior to quantification, tissue samples were thawed, weighed and homogenized at 100 mg tissue/mL in phosphate buffered saline (PBS; pH 7.4) using a Silverson model L4RT laboratory homogenizer. Homogenates were centrifuged at 13,000 g for 20 min at 4 °C to remove tissue debris. Whole blood samples were fractionated into plasma (serum + platelets) and blood cells (red and white blood cells) by centrifugation at 1200 g. Cellular blood components were lysed with lysis buffer (5 mmol/L Na o-vanadate, 10 mg/mL benzamidine, 1 mmol/L phenylmethylsulfonyl fluoride (PMSF), 10 mmol/L Tris HCl, 5 mmol/L ethylenediamine tetraacetic acid (EDTA), 50 mmol/L NaCl pH 7.4 and 3.5 mmol/L SDS) at a volume ratio of 1:5 cells: lysis buffer. These samples were centrifuged at 13,000 g for 20 min at 4 °C. Protein content of each sample was quantified using the Bradford assay.\nQuantification of total NOx was performed according to a method described by Verdon et al.. Briefly, samples were de-proteinated by mixing the sample with 0.3 mol/L NaOH and aqueous 0.27 mol/L ZnSO4 at a volume ratio of 1:1:2. NOx was determined in 50 μL de-proteinated sample in the form of nitrite using the colorimetric Griess method, [28]. The amount of nitrite in each sample was calculated from a linear calibration curve of known nitrite concentrations (linear range: 1–100 μmol/L) and normalized for total amount of protein (mg), quantified using the Bradford assay. The final concentration, expressed as μM nitrite/mg protein, represents the total NOx in the system. Any remaining nitrite in the infusate (drug solution administered) was not measured as we were more interested in in vivo changes in NOx levels in untreated versus different treated groups at different time points measured but we have previously characterized this."}, "[2]": {"details": "CD-1, mouse, in vivo, iv"}, "[3]": {"set-up": "method as in PMID 26686469", "details": "after equilibration of the NO moiety amongst plasma thiols via S-transnitrosylation; cited from earlier work"}, "[4]": {"details": "cited from earlier work"}, "[5]": {"details": "inhaled or intranasal, 1 umol/kg"}, "[6]": {"details": "10 μmol/L, human plasma and whole blood ex vivo"}}, "note": "Like-named read-outs stand apart in the source and are kept apart here.", "data": [{"compound": "N[C@@H](CCC(=O)N[C@@H](CSN=O)C(=O)N[C@@H](CCC(=O)N[C@@H](CSN=O)C(=O)NCC(=O)O)C(=O)O)C(=O)O", "note": "[SNOPC-2]", "values": [{"measurement": "Tmax (time at which the maximum response occurred)", "setting": "CD-1 mice; male, CD-1, mouse", "value": 0.083, "unit": "min"}, {"measurement": "NOx tmax Heart", "setting": "[1]", "value": 5, "unit": "min"}, {"measurement": "NOx tmax Liver", "setting": "[1]", "value": 5, "unit": "min"}, {"measurement": "NOx tmax Lung", "setting": "[1]", "value": 1, "unit": "min"}, {"measurement": "NOx tmax Plasma", "setting": "[1]", "value": 5, "unit": "min"}, {"measurement": "NOx tmax Heart", "setting": "[2]", "value": 1, "unit": "min"}, {"measurement": "NOx tmax Liver", "setting": "[2]", "value": 3, "unit": "min"}, {"measurement": "NOx tmax Lung", "setting": "[2]", "value": 1, "unit": "min"}, {"measurement": "NOx tmax Plasma", "setting": "[2]", "value": 1, "unit": "min"}]}, {"compound": "N[C@@H](CCC(=O)N[C@@H](CSN=O)C(=O)NCC(=O)O)C(=O)O", "note": "[GSNO, S-nitrosoglutathione]", "values": [{"measurement": "reduction in blood pressure", "setting": "CD-1 mice; i.v., 1 μmol NO/kg body weight, CD-1 mice, compared to saline", "value": "30–35%"}, {"measurement": "Tmax (time at which the maximum response occurred)", "setting": "CD-1 mice; mouse", "value": 0.083, "unit": "min"}, {"measurement": "NOx tmax Heart", "setting": "[1]; [5]", "value": 5, "unit": "min"}, {"measurement": "NOx tmax Liver", "setting": "[1]; [5]", "value": 5, "unit": "min"}, {"measurement": "NOx tmax Lung", "setting": "[1]; [5]", "value": 1, "unit": "min"}, {"measurement": "NOx tmax Plasma", "setting": "[1]; [5]", "value": 5, "unit": "min"}, {"measurement": "NOx tmax Heart", "setting": "[2]; 1 umol/kg", "value": 3, "unit": "min"}, {"measurement": "NOx tmax Liver", "setting": "[2]; 1 umol/kg", "value": 5, "unit": "min"}, {"measurement": "NOx tmax Lung", "setting": "[2]; 1 umol/kg", "value": 1, "unit": "min"}, {"measurement": "NOx tmax Plasma", "setting": "[2]; 1 umol/kg", "value": 1, "unit": "min"}, {"measurement": "half-life", "setting": "[3]", "value": "about 5 min"}, {"measurement": "Half-life of decomposition", "setting": "[4]; [6]", "value": "~2", "unit": "min"}, {"measurement": "decomposition within the first 5 min", "setting": "[4]; [6]", "value": "~85", "unit": "%"}, {"measurement": "time to full decomposition", "setting": "[4]; [6]", "value": "≤ 15", "unit": "min"}]}, {"compound": "N[C@@H](CCC(=O)N[C@@H](CSN=O)C(=O)N[C@@H](CCC(=O)N[C@@H](CSN=O)C(=O)N[C@@H](CCC(=O)N[C@@H](CSN=O)C(=O)N[C@@H](CCC(=O)N[C@@H](CSN=O)C(=O)N[C@@H](CCC(=O)N[C@@H](CSN=O)C(=O)N[C@@H](CCC(=O)N[C@@H](CSN=O)C(=O)NCC(=O)O)C(=O)O)C(=O)O)C(=O)O)C(=O)O)C(=O)O)C(=O)O", "note": "[SNOPC-6]", "values": [{"measurement": "Tmax (time at which the maximum response occurred)", "setting": "CD-1 mice; male, CD-1, mouse", "value": 0.083, "unit": "min"}, {"measurement": "NOx tmax Heart", "setting": "[1]", "value": 5, "unit": "min"}, {"measurement": "NOx tmax Liver", "setting": "[1]", "value": 5, "unit": "min"}, {"measurement": "NOx tmax Lung", "setting": "[1]", "value": 1, "unit": "min"}, {"measurement": "NOx tmax Plasma", "setting": "[1]", "value": 5, "unit": "min"}, {"measurement": "NOx tmax Heart", "setting": "[2]", "value": 1, "unit": "min"}, {"measurement": "NOx tmax Liver", "setting": "[2]", "value": 5, "unit": "min"}, {"measurement": "NOx tmax Lung", "setting": "[2]", "value": 1, "unit": "min"}, {"measurement": "NOx tmax Plasma", "setting": "[2]", "value": 3, "unit": "min"}]}, {"compound": "S-nitrosated cysteine [CySNO]", "values": [{"measurement": "half-life", "setting": "[3]", "value": "about 5 min"}, {"measurement": "decomposition within the first 5 min", "setting": "[4]; [6]", "value": "~85", "unit": "%"}, {"measurement": "time to full decomposition", "setting": "[4]; [6]", "value": "≤ 15", "unit": "min"}, {"measurement": "Half-life of decomposition", "setting": "[4]; human", "value": "approximately 50 s"}]}]}
